Results published in ChEMBL document CHEMBL5223122, “Discovery and preclinical evaluations of GST-HG131, a novel HBV antigen inhibitor for the treatment of chronic hepatitis B infection” (Bioorg Med Chem Lett, 2022).
Activity calls are given as the source filed them. The rule behind the calls is not given here.

How the values were obtained:
[1] = Protein binding in rat plasma assessed as unbound fraction; format: ADME, cell-free
[2] = Toxicity in rat assessed as rectal temperature at 300 to 1000 mg/kg, po measured after 1 hrs; format: organism-based; conditions: in vivo, dose 300-1000 mg/kg
[3] = Apparent permeability across apical to basolateral side in human Caco-2 cells; format: ADME, cell-based
Hepatitis B virus [4] = assay: Antiviral activity against HBV infected in human HepG2.2.15 cells assessed as reduction of 3.5 Kb HBV RNA level at 0.23 to 500 nM by Northern blot anlaysis; format: functional, organism-based; conditions: dose 0.23-500 nM
[5] = AUC (0-last) in Beagle dog at 3 mg/kg, po; format: ADME, organism-based, Canis lupus familiaris; set-up: dose 3 mg/kg, route po; conditions: in vivo
[6] = Microsomal stability in dog liver microsomes assessed as intrinsic clearance measured per mg of protein; format: ADME, Canis lupus familiaris, Microsome; conditions: read-out: CLH
[7] = Clearance in C57BL/6 mouse at 1 mg/kg, iv; format: ADME, organism-based; conditions: in vivo
Hepatitis B virus [8] = assay: Antiviral activity against HBV infected in human HepG2.2.15 cells assessed as maximum efficacy causing reduction of 3.5 Kb HBV RNA level incubated for 16 hrs by Northern blot anlaysis; format: functional, organism-based
Hepatitis B virus [9] = assay: Antiviral activity against HBV infected in human HepG2.2.15 assessed as HBV DNA reduction by qPCR method; format: functional, organism-based
Hepatitis B virus [10] = assay: Antiviral activity against HBV infected in human primary hepatocytes assessed as reduction on HBeAg level by ELISA; format: functional, organism-based; conditions: Hepatocyte
Hepatitis B virus [11] = assay: In vivo antiviral activity against AAV encapsidated HBV infected in mouse assessed as reduction in HBsAg level at 3 to 10 mg/kg, po QD for 4 weeks by ELISA; format: functional, organism-based; conditions: dose 3-10 mg/kg
[12] = Efflux ratio of apparent permeability from basolateral to apical side over apical to basolateral side in human Caco-2 cells; format: ADME, cell-based
[13] = Cmax in Sprague-Dawley rat at 2 mg/kg, po; format: ADME, organism-based; set-up: dose 2 mg/kg, route po; conditions: in vivo
[14] = Clearance in Sprague-Dawley rat at 1 mg/kg, iv; format: ADME, organism-based; conditions: in vivo
[15] = Half life in C57BL/6 mouse at 1 mg/kg, iv; format: ADME, organism-based; conditions: in vivo
[16] = Toxicity in rat assessed as mild white myeloid lymphocytopenia of spleen at 1000 mg/kg, po QD for 14 days; format: organism-based; conditions: in vivo, 336 h, time 14 day
Hepatitis B virus [17] = assay: In vivo antiviral activity against AAV encapsidated HBV infected in mouse assessed as reduction in HBeAg level at 3 to 10 mg/kg, po QD for 4 weeks by ELISA; format: functional, organism-based; conditions: dose 3-10 mg/kg
[18] = Microsomal stability in cynomolgus monkey liver microsomes assessed as intrinsic clearance measured per mg of protein; format: ADME, Macaca fascicularis, Microsome; conditions: read-out: CLH
CYP2C19 = CYP2C19 (Homo sapiens, UniProt P33261); assay: Inhibition of CYP2C19 (unknown origin); format: ADME
Hepatitis B virus [19] = assay: Antiviral activity against HBV infected in human HepG2.2.15 cells assessed as reduction of 2.4/2.1 Kb HBV RNA level at 0.23 to 500 nM by Northern blot anlaysis; format: functional, organism-based; conditions: dose 0.23-500 nM
[20] = Microsomal stability in rat liver microsomes assessed as intrinsic clearance measured per mg of protein; format: ADME, Microsome; conditions: read-out: CLH
[21] = Apparent permeability across basolateral to apical side in human Caco-2 cells; format: ADME, cell-based
Hepatitis B virus [22] = assay: In vivo antiviral activity against AAV encapsidated HBV infected in mouse assessed as reduction in HBeAg level at 10 mg/kg, po QD for 4 weeks in presence of tenofovir disoproxil fumarate by ELISA; format: functional, organism-based
[23] = Oral bioavailability in Sprague-Dawley rat at 2 mg/kg; format: ADME, organism-based; conditions: in vivo
[24] = Cmax in C57BL/6 mouse at 2 mg/kg, po; format: ADME, organism-based; set-up: dose 2 mg/kg, route po; conditions: in vivo
[25] = Oral bioavailability in Beagle dog at 3 mg/kg; format: ADME, organism-based, Canis lupus familiaris; conditions: in vivo
[26] = Microsomal stability in mouse liver microsomes assessed as intrinsic clearance measured per mg of protein; format: ADME, Microsome; conditions: read-out: CLH
CYP2C9 = CYP2C9 (Homo sapiens, UniProt P11712); assay: Inhibition of CYP2C9 (unknown origin); format: ADME
Hepatitis B virus [27] = assay: In vivo antiviral activity against AAV encapsidated HBV infected in mouse assessed as reduction in HBV DNA at 3 to 10 mg/kg, po QD for 4 weeks by qPCR method; format: functional, organism-based; conditions: dose 3-10 mg/kg
Hepatitis B virus [28] = assay: Antiviral activity against HBV infected in human HepG2.2.15 cells assessed as reduction of 2.4/2.1 Kb HBV RNA level at 500 nM incubated for 4 to 48 hrs by Northern blot anlaysis; format: functional, organism-based; conditions: time 4-48 hrs, TDE = time-dependent effect
[29] = target: Voltage-gated inwardly rectifying potassium channel KCNH2 (Homo sapiens, UniProt Q12809); assay: Inhibition of human ERG; format: toxicity
CYP1A2 = target: T1, CYP1A2 (Homo sapiens, UniProt P05177); assay: Inhibition of CYP1A2 (unknown origin); format: ADME
T1 sequence (P05177 whole entry): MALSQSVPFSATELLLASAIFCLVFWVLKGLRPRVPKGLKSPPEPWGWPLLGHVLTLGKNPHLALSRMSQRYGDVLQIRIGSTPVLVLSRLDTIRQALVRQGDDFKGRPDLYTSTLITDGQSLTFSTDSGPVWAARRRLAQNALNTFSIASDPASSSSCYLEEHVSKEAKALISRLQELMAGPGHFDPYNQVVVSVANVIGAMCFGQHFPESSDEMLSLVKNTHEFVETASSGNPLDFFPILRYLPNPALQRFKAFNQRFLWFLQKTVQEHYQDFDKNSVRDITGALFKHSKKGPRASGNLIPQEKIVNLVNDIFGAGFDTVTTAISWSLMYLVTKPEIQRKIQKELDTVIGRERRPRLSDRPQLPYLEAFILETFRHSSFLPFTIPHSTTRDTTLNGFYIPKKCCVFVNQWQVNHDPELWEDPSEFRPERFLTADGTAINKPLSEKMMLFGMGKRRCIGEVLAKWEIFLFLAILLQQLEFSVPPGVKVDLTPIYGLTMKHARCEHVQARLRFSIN

[30] = Clearance in Beagle dog at 1 mg/kg, iv; format: ADME, organism-based, Canis lupus familiaris; conditions: in vivo
[31] = Oral bioavailability in C57BL/6 mouse at 2 mg/kg; format: ADME, organism-based; conditions: in vivo
CYP3A4 = CYP3A4 (Homo sapiens, UniProt P08684); assay: Inhibition of CYP3A4 (unknown origin); format: ADME
[32] = Cmax in Beagle dog at 3 mg/kg, po; format: ADME, organism-based, Canis lupus familiaris; set-up: dose 3 mg/kg, route po; conditions: in vivo
[33] = Half life in Beagle dog at 1 mg/kg, iv; format: ADME, organism-based, Canis lupus familiaris; conditions: in vivo
Hepatitis B virus [34] = assay: Antiviral activity against HBV infected in human primary hepatocytes assessed as reduction on HBsAg level by ELISA; format: functional, organism-based; conditions: Hepatocyte
[35] = Toxicity in rat assessed as organ abnormality at 100 to 300 mg/kg, po QD for 14 days; format: organism-based; conditions: in vivo, 336 h, dose 100-300 mg/kg, time 14 day
Hepatitis B virus [36] = assay: Antiviral activity against HBV infected in human HepG2.2.15 assessed as reduction on HBsAg level by ELISA; format: functional, organism-based
[37] = Toxicity in mouse infected with AAV encapsidated HBV assessed as change in body weight at 3 to 10 mg/kg, po QD for 4 weeks; format: organism-based; conditions: in vivo, 672 h, dose 3-10 mg/kg
CYP2D6 = CYP2D6 (Homo sapiens, UniProt P10635); assay: Inhibition of CYP2D6 (unknown origin); format: ADME
Hepatitis B virus [38] = assay: In vivo antiviral activity against AAV encapsidated HBV infected in mouse assessed as reduction in HBsAg level at 10 mg/kg, po QD for 4 weeks in presence of tenofovir disoproxil fumarate by ELISA; format: functional, organism-based
Cytochrome P450 3A4 = Cytochrome P450 3A4 (Homo sapiens, UniProt P08684); assay: Induction of CYP3A4 (unknown origin); format: ADME
[39] = Volume of distribution in steady state in C57BL/6 mouse at 1 mg/kg, iv; format: ADME, organism-based; conditions: in vivo, read-out: Vdss
[40] = Glutathione reactivity assessed as GSH adduct formation; format: ADME
[41] = Volume of distribution in steady state in Sprague-Dawley rat at 1 mg/kg, iv; format: ADME, organism-based; conditions: in vivo, read-out: Vdss
Hepatitis B virus [42] = assay: Antiviral activity against HBV infected in human primary hepatocytes assessed as HBV DNA reduction at 20 uM by qPCR method; format: functional, Primary hepatocyte; set-up: scale not given: the % may be the effect or the level left
[43] = Half life in Sprague-Dawley rat at 1 mg/kg, iv; format: ADME, organism-based; conditions: in vivo
[44] = Protein binding in human plasma assessed as unbound fraction; format: ADME, cell-free
Hepatitis B virus [45] = assay: In vivo antiviral activity against AAV encapsidated HBV infected in mouse assessed as reduction in HBV DNA at 10 mg/kg, po QD for 4 weeks in presence of tenofovir disoproxil fumarate by qPCR method; format: functional, organism-based
Hepatitis B virus [46] = assay: Antiviral activity against HBV infected in human HepG2.2.15 cells assessed as reduction of 3.5 Kb HBV RNA level at 500 nM incubated for 4 to 48 hrs by Northern blot anlaysis; format: functional, organism-based; conditions: time 4-48 hrs, TDE = time-dependent effect
[47] = Volume of distribution in steady state in Beagle dog at 1 mg/kg, iv; format: ADME, organism-based, Canis lupus familiaris; conditions: in vivo, read-out: Vdss
[48] = Microsomal stability in human liver microsomes assessed as intrinsic clearance measured per mg of protein; format: ADME, Microsome; conditions: read-out: CLH

Sequence of CYP3A4 (P08684 whole entry): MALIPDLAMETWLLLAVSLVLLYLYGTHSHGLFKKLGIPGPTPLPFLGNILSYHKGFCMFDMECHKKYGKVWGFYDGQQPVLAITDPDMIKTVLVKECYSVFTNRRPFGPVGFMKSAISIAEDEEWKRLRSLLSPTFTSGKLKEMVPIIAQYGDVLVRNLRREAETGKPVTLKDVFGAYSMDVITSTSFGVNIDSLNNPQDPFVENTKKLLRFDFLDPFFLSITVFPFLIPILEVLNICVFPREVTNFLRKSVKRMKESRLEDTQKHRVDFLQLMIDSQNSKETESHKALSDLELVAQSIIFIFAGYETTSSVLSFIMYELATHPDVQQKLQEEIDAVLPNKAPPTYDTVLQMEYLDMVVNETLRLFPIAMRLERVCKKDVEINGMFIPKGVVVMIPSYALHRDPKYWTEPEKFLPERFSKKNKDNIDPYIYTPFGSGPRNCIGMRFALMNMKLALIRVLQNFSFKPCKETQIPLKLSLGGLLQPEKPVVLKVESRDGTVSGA
Sequence of Cytochrome P450 3A4 (P08684 whole entry): as above
Sequence of CYP2C19 (P33261 whole entry): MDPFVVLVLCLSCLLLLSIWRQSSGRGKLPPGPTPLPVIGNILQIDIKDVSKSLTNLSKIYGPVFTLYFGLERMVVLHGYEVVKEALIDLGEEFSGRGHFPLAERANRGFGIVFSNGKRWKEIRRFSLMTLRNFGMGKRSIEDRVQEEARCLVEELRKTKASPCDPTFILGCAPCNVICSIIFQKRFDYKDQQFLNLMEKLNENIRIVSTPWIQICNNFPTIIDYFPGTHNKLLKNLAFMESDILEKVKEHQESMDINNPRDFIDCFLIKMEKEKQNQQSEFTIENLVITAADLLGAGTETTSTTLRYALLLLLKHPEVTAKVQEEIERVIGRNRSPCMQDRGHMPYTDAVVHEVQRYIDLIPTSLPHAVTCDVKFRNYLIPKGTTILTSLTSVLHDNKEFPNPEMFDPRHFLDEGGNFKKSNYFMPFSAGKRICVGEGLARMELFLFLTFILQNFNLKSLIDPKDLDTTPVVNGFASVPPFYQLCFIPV
Sequence of CYP2C9 (P11712 whole entry): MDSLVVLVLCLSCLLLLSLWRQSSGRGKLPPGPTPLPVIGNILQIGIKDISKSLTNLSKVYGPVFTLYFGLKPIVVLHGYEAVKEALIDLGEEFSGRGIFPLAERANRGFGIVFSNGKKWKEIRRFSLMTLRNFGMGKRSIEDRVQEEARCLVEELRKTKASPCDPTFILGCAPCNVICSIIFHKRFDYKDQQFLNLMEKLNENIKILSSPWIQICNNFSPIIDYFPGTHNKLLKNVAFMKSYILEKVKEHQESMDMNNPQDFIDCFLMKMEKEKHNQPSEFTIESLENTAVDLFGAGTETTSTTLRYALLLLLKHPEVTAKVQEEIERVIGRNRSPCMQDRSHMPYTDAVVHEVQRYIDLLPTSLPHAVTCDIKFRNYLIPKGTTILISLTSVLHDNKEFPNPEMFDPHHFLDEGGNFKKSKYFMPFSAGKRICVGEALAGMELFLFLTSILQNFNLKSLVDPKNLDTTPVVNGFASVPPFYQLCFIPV
Sequence of CYP2D6 (P10635 whole entry): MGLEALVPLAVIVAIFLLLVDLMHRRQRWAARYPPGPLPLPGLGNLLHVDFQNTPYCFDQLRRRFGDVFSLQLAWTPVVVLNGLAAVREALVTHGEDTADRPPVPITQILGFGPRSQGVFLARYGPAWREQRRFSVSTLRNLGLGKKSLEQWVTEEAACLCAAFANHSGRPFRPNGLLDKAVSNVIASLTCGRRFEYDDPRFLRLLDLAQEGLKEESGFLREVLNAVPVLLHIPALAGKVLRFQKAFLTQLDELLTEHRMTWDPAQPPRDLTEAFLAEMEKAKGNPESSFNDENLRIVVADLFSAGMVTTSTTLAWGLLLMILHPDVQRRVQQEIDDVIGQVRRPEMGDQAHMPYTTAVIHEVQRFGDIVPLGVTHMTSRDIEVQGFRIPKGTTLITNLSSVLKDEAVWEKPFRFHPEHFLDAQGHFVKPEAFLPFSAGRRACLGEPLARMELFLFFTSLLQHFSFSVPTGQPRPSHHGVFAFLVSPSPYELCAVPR
Sequence of Voltage-gated inwardly rectifying potassium channel KCNH2 (Q12809 whole entry): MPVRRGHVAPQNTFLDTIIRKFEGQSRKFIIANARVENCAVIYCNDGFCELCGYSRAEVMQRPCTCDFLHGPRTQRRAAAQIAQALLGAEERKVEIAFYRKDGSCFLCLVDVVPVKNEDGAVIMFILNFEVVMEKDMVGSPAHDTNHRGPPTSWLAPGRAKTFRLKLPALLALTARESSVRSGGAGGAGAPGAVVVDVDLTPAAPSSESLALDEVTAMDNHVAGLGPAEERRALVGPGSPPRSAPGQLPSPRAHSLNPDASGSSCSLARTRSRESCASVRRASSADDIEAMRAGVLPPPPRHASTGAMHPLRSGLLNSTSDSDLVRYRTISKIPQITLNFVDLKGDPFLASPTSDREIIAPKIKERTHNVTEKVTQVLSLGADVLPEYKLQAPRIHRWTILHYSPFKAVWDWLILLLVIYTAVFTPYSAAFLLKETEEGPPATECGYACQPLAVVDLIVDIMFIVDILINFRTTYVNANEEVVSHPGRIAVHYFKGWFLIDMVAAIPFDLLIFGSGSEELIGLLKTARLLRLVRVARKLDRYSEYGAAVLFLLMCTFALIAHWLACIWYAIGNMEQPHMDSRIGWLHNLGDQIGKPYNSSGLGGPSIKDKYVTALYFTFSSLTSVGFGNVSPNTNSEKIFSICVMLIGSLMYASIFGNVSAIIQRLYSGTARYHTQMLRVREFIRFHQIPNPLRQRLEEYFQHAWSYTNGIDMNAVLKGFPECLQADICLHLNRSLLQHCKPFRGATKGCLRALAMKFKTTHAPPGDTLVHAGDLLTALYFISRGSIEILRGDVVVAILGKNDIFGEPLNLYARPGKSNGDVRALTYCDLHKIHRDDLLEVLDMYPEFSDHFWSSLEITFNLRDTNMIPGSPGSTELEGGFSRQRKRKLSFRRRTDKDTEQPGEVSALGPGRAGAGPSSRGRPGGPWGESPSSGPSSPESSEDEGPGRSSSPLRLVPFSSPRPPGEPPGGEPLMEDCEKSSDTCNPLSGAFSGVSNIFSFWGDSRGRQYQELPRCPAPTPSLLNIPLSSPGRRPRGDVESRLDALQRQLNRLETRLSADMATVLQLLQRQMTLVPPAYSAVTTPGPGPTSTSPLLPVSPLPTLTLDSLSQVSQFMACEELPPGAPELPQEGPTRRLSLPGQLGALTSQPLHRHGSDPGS

## COCCCOc1cc2c(cc1OC)-c1cc(=O)c(C(=O)O)cn1[C@H](C(C)(C)C)CO2
[1]
  fraction unbound: 0.414
[2]
  Activity: Non-Toxic
[3]
  Papp A→B: 1.4 ×10⁻⁶ cm/s
Hepatitis B virus [4]
  Activity: Dose-Dependent Effect
[5]
  AUC(0-t): 26.5 µM·h
[6]
  microsomal CLint: < 7.5 µL/min/mg
[7]
  clearance: 75 mL/min/kg
Hepatitis B virus [8]
  Activity: Active
Hepatitis B virus [9]
  EC50: 2.6 nM
Hepatitis B virus [10]
  EC50: 16 nM
Hepatitis B virus [11]
  Activity: Dose-Dependent Effect
[12]
  efflux ratio: 14.1
[13]
  Cmax: 659 nM
[14]
  clearance: 28 mL/min/kg
[15]
  half-life: 2.5 h
[16]
  Activity: Toxic
Hepatitis B virus [17]
  Activity: Dose-Dependent Effect
[18]
  microsomal CLint: < 7.5 µL/min/mg
CYP2C19
  IC50: > 50000 nM
Hepatitis B virus [19]
  Activity: Dose-Dependent Effect
[20]
  microsomal CLint: < 7.5 µL/min/mg
[21]
  Papp B→A: 20.4 ×10⁻⁶ cm/s
Hepatitis B virus [22]
  Activity: inactive
[23]
  bioavailability: 71.1%
[24]
  Cmax: 1060 nM
[25]
  bioavailability: 93.2%
[26]
  microsomal CLint: < 7.5 µL/min/mg
CYP2C9
  IC50: > 50000 nM
Hepatitis B virus [27]
  Activity: inactive
Hepatitis B virus [28]
  Activity: Tde
[29]
  IC50: > 30000 nM
CYP1A2
  IC50: > 50000 nM
[30]
  clearance: 4.04 mL/min/kg
[31]
  bioavailability: 91.6%
CYP3A4
  IC50: > 50000 nM
[32]
  Cmax: 4850 nM
[33]
  half-life: 3.39 h
Hepatitis B virus [34]
  EC50: 28.2 nM
[35]
  Activity: Non-Toxic
Hepatitis B virus [36]
  EC50: 3.9 nM
[37]
  Activity: Non-Toxic
CYP2D6
  IC50: > 50000 nM
Hepatitis B virus [38]
  Activity: inactive
Cytochrome P450 3A4
  Activity: Not Active
[39]
  Vd: 5.8 L/kg
[40]
  Activity: Not Active
[41]
  Vd: 1.72 L/kg
Hepatitis B virus [42]
  Activity: 50%
[43]
  half-life: 2 h
[44]
  fraction unbound: 0.44
Hepatitis B virus [45]
  Activity: Active
Hepatitis B virus [46]
  Activity: Tde
[47]
  Vd: 1.08 L/kg
[48]
  microsomal CLint: < 7.5 µL/min/mg
